As usually defined, the IC50 is the concentration at which inhibition is half-maximal. A higher IC50 goes with weaker potency in that assay.

Experiment [1] concerns the target T1, Type-1 angiotensin II receptor B (Rattus norvegicus, UniProt P29089).
T1 sequence (P29089 whole entry): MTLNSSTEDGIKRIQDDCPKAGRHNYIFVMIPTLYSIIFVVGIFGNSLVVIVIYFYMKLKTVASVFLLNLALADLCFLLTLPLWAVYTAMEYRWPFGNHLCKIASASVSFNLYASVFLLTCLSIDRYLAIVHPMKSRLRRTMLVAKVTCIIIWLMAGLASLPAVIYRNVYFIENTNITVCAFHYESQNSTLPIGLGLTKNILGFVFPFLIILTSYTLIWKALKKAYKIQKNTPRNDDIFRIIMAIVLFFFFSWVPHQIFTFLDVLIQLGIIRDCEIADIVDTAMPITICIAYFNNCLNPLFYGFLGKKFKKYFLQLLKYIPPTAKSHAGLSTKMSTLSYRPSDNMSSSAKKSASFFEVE
The experiment can be described thus: Tested for binding affinity against angiotensin II receptor in rat adrenal cortex. The format is tissue-based.

Experiment [2] deals with T2, Type-1 angiotensin II receptor (Bos taurus, UniProt P25104).
T2 sequence (P25104 whole entry): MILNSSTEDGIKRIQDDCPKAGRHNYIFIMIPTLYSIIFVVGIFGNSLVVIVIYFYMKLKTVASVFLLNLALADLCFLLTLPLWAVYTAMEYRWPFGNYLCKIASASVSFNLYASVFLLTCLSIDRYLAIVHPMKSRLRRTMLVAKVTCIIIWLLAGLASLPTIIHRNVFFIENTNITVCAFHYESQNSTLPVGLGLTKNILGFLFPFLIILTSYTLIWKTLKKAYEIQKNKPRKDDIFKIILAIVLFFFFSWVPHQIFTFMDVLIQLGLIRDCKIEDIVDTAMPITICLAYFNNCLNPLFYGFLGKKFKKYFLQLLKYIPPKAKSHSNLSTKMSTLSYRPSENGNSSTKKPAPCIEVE
The experiment can be described thus: Tested for binding affinity against angiotensin II receptor in bovine adrenal cortex. It is filed as tissue-based.

As for `CCCCc1cc(=O)n(C)c(=O)n1Cc1ccc(-c2ccccc2-c2nn[nH]n2)cc1`, the IC50 in experiment [1] turned out to be 4.5 nM; in experiment [2] it was 44 nM.
The like results for `CCCc1cc(=O)n(CCNC(C)=O)c(=O)n1Cc1ccc(-c2ccccc2-c2nnn[nH]2)cc1` were, in that order, 3.4 nM and 40 nM.
On the same counts, the results for `CCCCc1cc(=O)n2nc(-c3ccccc3)nc2n1Cc1ccc(-c2ccccc2-c2nn[nH]n2)cc1` are 83 nM and 520 nM.
The molecule `CCc1cc(=O)n(C)c(=O)n1Cc1ccc(-c2ccccc2-c2nnn[nH]2)cc1` gave an IC50 in experiment [2] of 1000 nM.
Regarding `CCCc1cc2ncnn2c(=O)n1Cc1ccc(-c2ccccc2-c2nnn[nH]2)cc1`, the IC50 in experiment [1] was 6.2 nM; in experiment [2], 62 nM.
Take `C=CCn1c(=O)cc(CCC)n(Cc2ccc(-c3ccccc3-c3nnn[nH]3)cc2)c1=O`: the IC50 in experiment [1] turned out to be 3.3 nM; in experiment [2], 34 nM.
On the same counts, the results for `CCCc1cc(=O)[nH]c(=O)n1Cc1ccc(-c2ccccc2-c2nn[nH]n2)cc1` are 4.3 nM and 100 nM.
The like results for `CCCCc1cc(=O)n(Cc2ccccc2C(=O)OC)c(=O)n1Cc1ccc(-c2ccccc2-c2nnn[nH]2)cc1` were, in that order, 2.4 nM and 27 nM.
The like results for `CCCc1cc(=O)n(C)c(=O)n1Cc1ccc(-c2ccccc2-c2nn[nH]n2)cc1` were, in that order, 17 nM and 55 nM.
Take `CCCc1cc(=O)n(CCNC(=O)NC2CCCCC2)c(=O)n1Cc1ccc(-c2ccccc2-c2nnn[nH]2)cc1`: the IC50 in experiment [1] is 1.4 nM; in experiment [2], 23 nM.
In experiment [2], `Cn1c(=O)cc(C2CC2)n(Cc2ccc(-c3ccccc3-c3nn[nH]n3)cc2)c1=O` displayed an IC50 of 2400 nM.
For the molecule `CCCc1cc(=O)n(CC(=O)N(C)C)c(=O)n1Cc1ccc(-c2ccccc2-c2nn[nH]n2)cc1`, the results for the concentration for half-maximal inhibition (IC50) in experiment [1] and in experiment [2] were 0.65 nM and 9.3 nM, respectively.
In experiment [2], `CCCc1cc(=O)n(Cc2ccccc2)c(=O)n1Cc1ccc(-c2ccccc2-c2nn[nH]n2)cc1` showed an IC50 of 25 nM.
`CCCc1c(C)c(=O)n(C)c(=O)n1Cc1ccc(-c2ccccc2-c2nnn[nH]2)cc1`: the IC50 in experiment [2] was 6600 nM.
`CCCCn1c(=O)cc(CCC)n(Cc2ccc(-c3ccccc3-c3nn[nH]n3)cc2)c1=O` had an IC50 in experiment [2] of 16 nM.
As for `CCCc1cc(=O)n(Cc2ccccc2C(=O)OC)c(=O)n1Cc1ccc(-c2ccccc2-c2nnn[nH]2)cc1`, the half-inhibitory concentration (IC50) in experiment [1] was 2.3 nM; in experiment [2] it was 20 nM.
`CCCCc1nc(Cl)c(CO)n1Cc1ccc(-c2ccccc2-c2nn[nH]n2)cc1` [LOSARTAN]: the IC50 in experiment [2] turned out to be 160 nM.
